This experiment addresses T1, SIRT1 (Homo sapiens, UniProt Q96EB6).
T1 sequence (Q96EB6 1-747): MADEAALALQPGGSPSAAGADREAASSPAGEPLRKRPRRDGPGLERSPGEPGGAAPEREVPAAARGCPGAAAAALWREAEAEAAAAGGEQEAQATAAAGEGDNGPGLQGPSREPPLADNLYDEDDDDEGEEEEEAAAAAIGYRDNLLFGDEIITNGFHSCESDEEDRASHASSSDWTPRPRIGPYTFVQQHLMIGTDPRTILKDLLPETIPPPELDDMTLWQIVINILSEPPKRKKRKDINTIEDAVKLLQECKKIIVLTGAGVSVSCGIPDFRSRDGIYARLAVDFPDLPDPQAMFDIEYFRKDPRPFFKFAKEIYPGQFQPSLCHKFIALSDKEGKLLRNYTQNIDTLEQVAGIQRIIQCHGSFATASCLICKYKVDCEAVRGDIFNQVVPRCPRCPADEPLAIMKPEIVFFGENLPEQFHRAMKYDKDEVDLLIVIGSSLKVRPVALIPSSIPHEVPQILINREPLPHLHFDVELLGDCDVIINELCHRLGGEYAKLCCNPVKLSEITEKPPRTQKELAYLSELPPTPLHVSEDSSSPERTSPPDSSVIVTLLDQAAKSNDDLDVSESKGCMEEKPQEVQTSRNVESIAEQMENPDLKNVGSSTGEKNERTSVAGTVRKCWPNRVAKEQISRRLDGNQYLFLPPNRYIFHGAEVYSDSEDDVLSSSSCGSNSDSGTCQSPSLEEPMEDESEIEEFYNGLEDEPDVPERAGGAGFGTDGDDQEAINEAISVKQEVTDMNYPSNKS
Description: Mass spectrometry based SIRT1 deacetylase activation assay (acetylated p53-derived peptide substrate). The experiment is classed as biochemical.

Setting [1] is: 0.5 μM peptide substrate, 120 μM βNAD+, 10 nM SIRT1, 25 min at 25° C.
The mark [2] stands for this setting: 0.5 μM peptide substrate, 120 μM βNAD+, 10 nM SIRT1, 25 min at 25° C., read-out: EC1.5.
Setting [3] is: 0.5 μM peptide substrate, 120 μM βNAD+, 10 nM SIRT1, 25 minutes at 25° C.

Like-named read-outs stand apart in the source and are kept apart here.

As to `O=C(Nc1ccccn1)c1cccc2[nH]c(-c3cc(N4CCOCC4)ccc3C(F)(F)F)nc12` [Compound 449], the “Fold Act. (percent maximum fold activation)” value under setting [1] was “A (Fold activation >200%)”. In addition, the EC1.5 under setting [2] was less than 1000 nM.
The corresponding values for `O=C(Nc1cccc(OCC(O)CO)c1)c1cccc2[nH]c(-c3ccccc3C(F)(F)F)nc12` (stereo not drawn) [Compound 478] are “A (Fold activation >200%)” and less than 1000 nM.
Turning to `O=C(Nc1nccs1)c1cc(N2CCOCC2)cc2[nH]c(-c3cc(F)ccc3C(F)(F)F)nc12` [Compound 644], under setting [3], the EC1.5 entry is “A (EC1.5<1.0 uM)” and the “Fold Act. (percent maximum fold activation)” value is “A (Fold activation >200%)”.
Take `O=C(Nc1ccccn1)c1cncc2[nH]c(-c3ccc(F)cc3C(F)(F)F)nc12` [Compound 694]: under setting [3], the EC1.5 result is recorded as “B (EC1.5 1-25 uM)” and the “Fold Act. (percent maximum fold activation)” value is recorded as “B (Fold Activation <200%)”.
Turning to `Cc1cnc(NC(=O)c2cccc3[nH]c(-c4ccc(F)cc4C(F)F)nc23)s1` [Compound 560], the “Fold Act. (percent maximum fold activation)” value under setting [1] is on record as “A (Fold activation >200%)”. Under setting [2], the EC1.5 is less than 1000 nM.
Turning to `O=C(Nc1nccs1)c1cccc2[nH]c(-c3ccnc(N4CCCC4)c3)nc12` [Compound 446], the “Fold Act. (percent maximum fold activation)” value under setting [1] is listed as “B (Fold Activation <200%)”. The EC1.5 under setting [2] is less than 1000 nM.
The corresponding values for `O=C(Nc1nccs1)c1cccc2[nH]c(-c3ccc(OC4CCNCC4)cc3)nc12` [Compound 447] are “A (Fold activation >200%)” and less than 1000 nM.
Take `O=C(Nc1nccs1)c1cccc2[nH]c(-c3cccc(Oc4ccccc4)c3)nc12` [Compound 224]: the EC1.5 entry was “B (EC1.5 1-25 uM)” and the “Fold Act. (percent maximum fold activation)” value is recorded as “A (Fold activation >200%)”.
Regarding `O=C(Nc1nccs1)c1cccc2[nH]c(-c3ccc(F)c(Cl)c3)nc12` [Compound 235], the EC1.5 entry is “B (EC1.5 1-25 uM)” and the “Fold Act. (percent maximum fold activation)” value is given as “A (Fold activation >200%)”.
Take `O=C(Nc1cccnc1)c1cccc2[nH]c(-c3ccc(OCCN4CCOCC4)cc3C(F)F)nc12` [Compound 724]: under setting [3], the EC1.5 entry is listed as “A (EC1.5<1.0 uM)” and the “Fold Act. (percent maximum fold activation)” value was “A (Fold activation >200%)”.
Take `O=C(Nc1cccc(CN2CCOCC2)n1)c1cccc2[nH]c(-c3cc(F)ccc3F)nc12` [Compound 855]: under setting [3], the EC1.5 entry is given as “A (EC1.5<1.0 uM)” and the “Fold Act. (percent maximum fold activation)” value was “A (Fold activation >200%)”.
Consider `O=C(Nc1cccc(OC[C@H](O)CO)c1)c1cncc2[nH]c(-c3ccc(Cl)cc3C(F)(F)F)nc12` [Compound 739], for which, under setting [3], the EC1.5 entry was “A (EC1.5<1.0 uM)” and the “Fold Act. (percent maximum fold activation)” value is “A (Fold activation >200%)”.
With `O=C(Nc1cccnc1)c1cccc2[nH]c(-c3cccc(OC4CCNCC4)c3)nc12` [Compound 567], the “Fold Act. (percent maximum fold activation)” value under setting [1] is listed as “A (Fold activation >200%)”. Also, the EC1.5 under setting [2] was less than 1000 nM.
For the compound `O=C(Nc1cccnc1)c1cncc2[nH]c(-c3ccc(Cl)cc3C(F)(F)F)nc12` [Compound 650], under setting [3], the EC1.5 entry is listed as “A (EC1.5<1.0 uM)” and the “Fold Act. (percent maximum fold activation)” value is recorded as “A (Fold activation >200%)”.
As for `O=C(NC1CN2CCC1CC2)c1cccc2[nH]c(-c3cccc(C(F)(F)F)c3)nc12` (stereo not drawn) [Compound 272], the EC1.5 entry is on record as “B (EC1.5 1-25 uM)” and the “Fold Act. (percent maximum fold activation)” value was “A (Fold activation >200%)”.
With `O=C(Nc1ccccn1)c1cccc2[nH]c(-c3ccccc3OC3CCNC3)nc12` (stereo not drawn) [Compound 460], the “Fold Act. (percent maximum fold activation)” value under setting [1] is on record as “A (Fold activation >200%)”. For the same compound, under setting [2], the EC1.5 was in the range of 1000 to 25000 nM.
With `O=C(Nc1ccccn1)c1cncc2[nH]c(-c3cc(F)ccc3C(F)(F)F)nc12` [Compound 654], under setting [3], the EC1.5 result was “B (EC1.5 1-25 uM)” and the “Fold Act. (percent maximum fold activation)” value is reported as “A (Fold activation >200%)”.
Consider `Cc1cnc(NC(=O)c2cccc3[nH]c(-c4ccc(Cl)cc4C(F)(F)F)nc23)s1` [Compound 346], for which the EC1.5 entry is “A (EC1.5<1.0 uM)” and the “Fold Act. (percent maximum fold activation)” value was “A (Fold activation >200%)”.
The corresponding values for `O=C(Nc1nccs1)c1cccc2[nH]c(-c3nccs3)nc12` [Compound 238] are “B (EC1.5 1-25 uM)” and “B (Fold Activation <200%)”.
The corresponding values for `Cc1cc(-c2nc3c(C(=O)Nc4nccs4)cccc3[nH]2)no1` [Compound 230] are “A (EC1.5<1.0 uM)” and “B (Fold Activation <200%)”.
In the case of `CS(=O)(=O)c1ccc(F)cc1-c1nc2c(C(=O)Nc3cccnc3)cccc2[nH]1` [Compound 659], under setting [3], the EC1.5 result is “B (EC1.5 1-25 uM)” and the “Fold Act. (percent maximum fold activation)” value is “A (Fold activation >200%)”.
Consider `O=C(Nc1cccnc1)c1cc(N2CCOCC2)cc2[nH]c(-c3cc(F)ccc3C(F)(F)F)nc12` [Compound 646], for which, under setting [3], the EC1.5 entry is “A (EC1.5<1.0 uM)” and the “Fold Act. (percent maximum fold activation)” value is recorded as “A (Fold activation >200%)”.
On to `O=C(Nc1cccnn1)c1cc(N2CCOCC2)cc2[nH]c(-c3cc(F)ccc3C(F)(F)F)nc12` [Compound 647], for which, under setting [3], the EC1.5 result was “A (EC1.5<1.0 uM)” and the “Fold Act. (percent maximum fold activation)” value was “A (Fold activation >200%)”.
As to `O=C(Nc1nccs1)c1cccc2[nH]c(-c3ccccc3C(F)(F)F)nc12` [Compound 208, N-(thiazol-2-yl)-2-(2-(trifluoromethyl)phenyl)-1H-benzo[d]imidazole-4-carboxamide], the EC1.5 result is reported as “A (EC1.5<1.0 uM)” and the “Fold Act. (percent maximum fold activation)” value is “A (Fold activation >200%)”.
In the case of `O=C(Nc1ncc(F)s1)c1cccc2[nH]c(-c3ccc(Cl)cc3C(F)(F)F)nc12` [Compound 321], the EC1.5 entry is recorded as “A (EC1.5<1.0 uM)” and the “Fold Act. (percent maximum fold activation)” value was “A (Fold activation >200%)”.
For `O=C(Nc1nccs1)c1cccc2[nH]c(-c3ccncc3)nc12` [Compound 237], the EC1.5 result is listed as “B (EC1.5 1-25 uM)” and the “Fold Act. (percent maximum fold activation)” value is on record as “B (Fold Activation <200%)”.
The corresponding values for `O=C(Nc1cccnc1)c1cccc2[nH]c(-c3ccnc(N4CCCCC4)c3)nc12` [Compound 373] are “B (EC1.5 1-25 uM)” and “A (Fold activation >200%)”.
In the case of `Cc1cc(NC(=O)c2cccc3[nH]c(-c4ccccc4OCCN4CCOCC4)nc23)n(C)n1` [Compound 487], under setting [1], the “Fold Act. (percent maximum fold activation)” value is recorded as “A (Fold activation >200%)”. The EC1.5 under setting [2] is 1000 to 25000 nM.
For the compound `O=C(Nc1nccs1)c1cccc2[nH]c(-c3cccc(Cl)c3)nc12` [Compound 219], the EC1.5 result was “B (EC1.5 1-25 uM)” and the “Fold Act. (percent maximum fold activation)” value is “A (Fold activation >200%)”.
The corresponding values for `O=C(Nc1nccs1)c1cccc2[nH]c(-c3ccc(OCC(O)CO)cc3)nc12` (stereo not drawn) [Compound 325] are “A (EC1.5<1.0 uM)” and “A (Fold activation >200%)”.
With `O=C(Nc1nccs1)c1cccc2[nH]c(-c3cc(F)cc(F)c3OCCN3CCOCC3)nc12` [Compound 585], the “Fold Act. (percent maximum fold activation)” value under setting [1] was “B (Fold Activation <200%)”. Besides, the EC1.5 under setting [2] was 1000 to 25000 nM.
For `O=C(Nc1cccc(OCC(O)CO)c1)c1cccc2[nH]c(-c3cc(F)ccc3C(F)(F)F)nc12` (stereo not drawn) [Compound 680], under setting [3], the EC1.5 entry was “A (EC1.5<1.0 uM)” and the “Fold Act. (percent maximum fold activation)” value is on record as “A (Fold activation >200%)”.
As to `O=C(Nc1nccs1)c1cccc2[nH]c(-c3cccc(N4CCCCC4)c3)nc12` [Compound 225], the EC1.5 entry is given as “B (EC1.5 1-25 uM)” and the “Fold Act. (percent maximum fold activation)” value is “A (Fold activation >200%)”.
Take `O=C(Nc1cccnc1)c1cccc2[nH]c(-c3ccc(N4CCCC4)cc3C(F)F)nc12` [Compound 774]: under setting [3], the EC1.5 entry is given as “A (EC1.5<1.0 uM)” and the “Fold Act. (percent maximum fold activation)” value is reported as “A (Fold activation >200%)”.
Take `O=C(Nc1ccccn1)c1cncc2[nH]c(-c3ccccc3C(F)(F)F)nc12` [Compound 636]: under setting [3], the EC1.5 result is listed as “A (EC1.5<1.0 uM)” and the “Fold Act. (percent maximum fold activation)” value is listed as “A (Fold activation >200%)”.
As for `CC1(C)Cc2cc(-c3nc4c(C(=O)Nc5cccnc5)cccc4[nH]3)ccc2O1` [Compound 499], the “Fold Act. (percent maximum fold activation)” value under setting [1] is “A (Fold activation >200%)”. For the same compound, the EC1.5 under setting [2] is 1000 to 25000 nM.
On to `O=C(Nc1ccccn1)c1cc(F)cc2nc(-c3ccc(Cl)cc3C(F)F)[nH]c12` [Compound 823], for which, under setting [3], the EC1.5 result is reported as “A (EC1.5<1.0 uM)” and the “Fold Act. (percent maximum fold activation)” value is given as “A (Fold activation >200%)”.
On to `O=C(Nc1nccs1)c1cccc2[nH]c(-c3cccc4c3OC(F)(F)O4)nc12` [Compound 427], for which the “Fold Act. (percent maximum fold activation)” value under setting [1] is “A (Fold activation >200%)”. Under setting [2], the EC1.5 was less than 1000 nM.
Turning to `O=C(Nc1nccs1)c1cc(F)cc2nc(-c3cc(F)ccc3C(F)F)[nH]c12` [Compound 835], under setting [3], the EC1.5 result is “A (EC1.5<1.0 uM)” and the “Fold Act. (percent maximum fold activation)” value was “A (Fold activation >200%)”.

Source of the values: patent US8846947B2, “Benzimidazoles and related analogs as sirtuin modulators” (GlaxoSmithKline LLC, priority 2008, dated 2014).
